Test results from US10624884B2, “H4 agonist molecule for the treatment of idiopathic pulmonary fibrosis” (H4 ORPHAN PHARMA, priority 2016, dated 2020).

Experiments:
[1] = tested on: CFU rich in H4 receptor; assay: Proliferation of CFU rich in H4 receptor (FIG. 5); assay type: cell-based; conditions: for Activity on CFU proliferation when an anti H4 is used: with an anti H4
[2] = tested on: idiopathic pulmonary fibrosis; conditions: 1,800 mg/d for one year, in addition to corticoids and azathioprine, cited from earlier work
[3] = tested on: bleomycin mouse model of idiopathic pulmonary fibrosis (BL6 mice); assay: Bleomycin mouse model: lung histology, semi-quantitative fibrosis score (Ashcroft score); assay type: in vivo, mice (C57/B16J
Description: (§1) The bleomycin mouse protocol (BLM) was conducted with all of the mice of each group of 10 mice (species: C57/B16J, referred to further on as BL6); these are female mice 8 weeks old.
The analyse of the Fibrosis was conducted with all the animals of each group, respectively. The extent of the fibrosis was analysed biochemically, histologically and cytologically using various quantitative and semi quantitative methods.
All of the mice BL6 are treated according to the protocol hereinbelow. • 5 groups of mice were evaluated.
The treatment with bleomycin (BLM) is done according to the following protocol:
(§2) All of the mice of all of the groups (except group 1) receive bleomycin (BLM) intranasally (3 mg/kg via intranasal instillation) for 5 consecutive days and will be monitored daily and killed at D+29 after BLM instillation in order to study the chronic pulmonary inflammation and the fibrosis. The bleomycin being administered five times at the age of 8 weeks (see diagram 3A).
(§3) The treatment with tritoqualine is done in 2 doses, 20 and 40 mg/kg/day throughout the entire life of the mice. The treatment with tritoqualine starts fourteen days after the first inhalation of the treatment with bleomycin. The treatment is done orally. The groups studied were as follows:
After bronchoalveolar lavage (BAL) and perfusion of the lung, the large lobe was fixed in 4% buffered formaldehyde for standard microscopic analysis (Leica microscope). […] sections were coloured with Masson's trichrome (TM) by using standard techniques, which allow for the evaluation of the fibrosis (TM) as the fibres of collagen are coloured blue and the observation of the extent of the inflammation.
The fibrosis was evaluated by a semi-quantitative score (0-5) (Ashcroft score) with the increase in severity by two independent observers.
The fibrosis with the deposit of collagen located at the alveolar walls and in the peribronchial area and the infiltration of inflammatory cells were evaluated using a semi-quantitative score of 0-5 with an increasing severity by two independent observers.

[4] = tested on: collagen; assay: Bleomycin mouse model: titration of collagen (hydroxyproline) in lung homogenate; assay type: in vivo, mice (C57/B16J, BL6); conditions: for Collagen (hydroxyproline), mean±standard deviation: BLM mice, n=10, bleomycin group 340.0±4.888
Description: as §1, §2, §3
The collagen content is done after homogenisation of the lung. After bronchoalveolar lavage (BAL), the entire lung was perfused with a saline solution through the right ventricle of the heart in order to empty the vascular content.
The lungs were frozen at −70° C. until they were used. The lung was then homogenised in PBS and centrifuged.
The supernatant was discarded and the lower portion was put back into suspension in 1 ml of PBS containing 0.5% hexadecyltrimethylammonium bromide (HTAB) and 5 mM ethylene-diamine-tetra-acetic acid (EDTA).
After centrifugation, the collagen content was determined by the Sircol assay (France Biochem Division, France), as described by the manufacturer.
The titration of the collagen (method by the dosage of hydroxyproline) is expressed in μg/mg of proteins.

[5] = tested on: TGFβ; assay: Bleomycin mouse model: measurement of cytokines (TGFβ) in lung homogenate, Luminex assay; assay type: in vivo, mice (C57/B16J, BL6); conditions: BLM mice; P=0.001 for both substances; FIG. 1A
Description: as §1, §2, §3
The interferon gamma and TGFβ levels were measured in a lung homogenate; the concentrations of these different cytokines were determined by a Luminex assay using a MAGPIX (Biorad, France) according to the manufacturer's instructions.

[6] = target: T1, histidine decarboxylase (Homo sapiens, UniProt P19113); conditions: background statement; cited from earlier work
T1 sequence (P19113 1-662): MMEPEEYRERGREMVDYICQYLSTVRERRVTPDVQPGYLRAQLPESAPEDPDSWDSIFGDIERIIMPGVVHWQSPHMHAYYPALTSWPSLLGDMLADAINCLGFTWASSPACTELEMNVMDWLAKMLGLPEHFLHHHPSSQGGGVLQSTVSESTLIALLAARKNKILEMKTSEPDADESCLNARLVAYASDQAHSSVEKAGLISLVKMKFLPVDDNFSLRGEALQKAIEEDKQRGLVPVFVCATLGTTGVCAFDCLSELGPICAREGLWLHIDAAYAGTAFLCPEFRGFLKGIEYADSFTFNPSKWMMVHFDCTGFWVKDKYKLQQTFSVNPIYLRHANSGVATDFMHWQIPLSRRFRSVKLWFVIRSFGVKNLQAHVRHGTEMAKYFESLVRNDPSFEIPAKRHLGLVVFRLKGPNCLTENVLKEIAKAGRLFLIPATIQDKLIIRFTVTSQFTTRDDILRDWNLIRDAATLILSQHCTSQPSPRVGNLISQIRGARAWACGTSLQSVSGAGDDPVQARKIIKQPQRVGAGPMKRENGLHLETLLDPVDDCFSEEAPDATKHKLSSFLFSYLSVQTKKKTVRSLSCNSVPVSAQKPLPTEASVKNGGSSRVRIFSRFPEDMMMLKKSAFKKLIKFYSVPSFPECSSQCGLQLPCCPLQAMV

[7] = commercial white powder; degrades in Cotarnine and phthalic acid; cited from earlier work
[8] = target: histamine H4 receptor (Homo sapiens, UniProt Q9H3N8); conditions: shown in US 2010144718A; cited from earlier work
histamine H4 receptor, sequence (Q9H3N8 whole entry, species assumed): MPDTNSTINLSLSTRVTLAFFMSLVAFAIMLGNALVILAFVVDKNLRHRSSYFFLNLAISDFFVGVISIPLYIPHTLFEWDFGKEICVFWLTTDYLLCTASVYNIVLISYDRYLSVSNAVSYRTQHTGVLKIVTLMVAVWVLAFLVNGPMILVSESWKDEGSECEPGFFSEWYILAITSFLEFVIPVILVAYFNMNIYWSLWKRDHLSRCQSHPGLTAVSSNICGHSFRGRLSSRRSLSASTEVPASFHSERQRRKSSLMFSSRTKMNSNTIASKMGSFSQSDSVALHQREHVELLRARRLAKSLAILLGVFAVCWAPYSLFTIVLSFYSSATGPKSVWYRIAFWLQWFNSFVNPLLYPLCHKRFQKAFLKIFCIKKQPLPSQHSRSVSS

[9] = pirfenidone 100 mg/kg po versus bleomycin

Structure (SMILES): NC(=NCc1ccc(Cl)cc1)SCCCc1cnc[nH]1 [Clobenpropit]
- Activity on CFU proliferation when an anti H4 is used [1]: substantially diminished

Structure (SMILES): CC(=O)N[C@@H](CS)C(=O)O [N-acetylcysteine]
- Average decrease in the decline of the forced vital capacity ([2]; (0.03-0.32)): 0.18 L
- Decrease in the decline of the diffusion of CO [2]: 24%
- Mortality between the two groups [2]: no difference in mortality
- Relative difference in the decline of the forced vital capacity [2]: 9%

Structure (SMILES): Cc1ccc(=O)n(-c2ccccc2)c1 [Pirfenidone, pirfenidone]
- Histological semi-quantitative score (0-5) (Ashcroft score), mean±standard deviation ([3]; BLM mice, pirfenidone 100 mg/kg po, n=10, bleomycin group 4.2±0.14, P 0.0449): 3.8±0.12
- Histological score, difference between the two means (treated versus bleomycin) [3, 9]: −0.40±0.18
- Collagen (hydroxyproline), mean±standard deviation ([4]; pirfenidone 100 mg/kg po, P 0.0450): 316.5±9.748 μg/mg of proteins
- Collagen (hydroxyproline), difference between the two means (treated versus bleomycin) [4, 9]: −23.50±10.90 μg/mg of proteins
- Effect on TGFβ in lung homogenate [5]: strongly inhibits

Structure (SMILES): CCOc1c(N)c2c(c(OCC)c1OCC)C(C1c3c(cc4c(c3OC)OCO4)CCN1C)OC2=O (centres unmarked) [Tritoqualine, 7-Amino-4,5,6-triethoxy-3-(5,6,7,8-tetrahydo-4-methoxy-6-methyl-1,3-dioxolo[4,5-g]isoquinolin-5-yl) phthalide]
- Effect on the proliferation of CFU rich in H4 receptor [1]: able to inhibit the proliferation of CFU
- Activity on CFU proliferation when an anti H4 is used [1]: substantially diminished
- Inhibiting activity on histidine decarboxylase [6]: very low
- Efficacy on histology versus bleomycin (conclusion) ([3]; tritoqualine 20 mg/kg po, D14 to D28, P<0.0002): very high efficacy
- Effect on the histological score ([3]; tritoqualine at the dose of 20 or 40 mg/kg, po): substantially decreases the histological score
- Collagen (hydroxyproline), mean±standard deviation ([4]; tritoqualine 20 mg/kg po, P<0.0001): 280.0±7.528 μg/mg of proteins
- Collagen (hydroxyproline), difference between the two means (treated versus bleomycin) ([4]; tritoqualine 20 mg/kg po versus bleomycin): −60.00±8.975 μg/mg of proteins
- Stability to light [7]: highly sensitive to light
- Effect on TGFβ in lung homogenate [5]: strongly inhibits
- Action on the histamine H4 receptor [8]: very substantial action
